# Measured values reported in US4251546A, “Process for killing internal helminths using certain 1,1-bis-(2-substituted-3-nitrophenyl)alkane or alkylene derivatives” (ICI Australia Limited, priority 1977, dated 1981).
# Assays:
# [1] = system: sheep liver fluke (Fasciola hepatica); assay: Fluke egg count in faeces and adult fluke count in liver of infected sheep after a single s/c dose (Table 3); type: in vivo; conditions: for POST MORTEM RESULT No. of adult fluke: liver
# Procedure: Compositions suitable for use as experimental injectable solutions were prepared by formulating the compounds as solutions of their salts either in water or in a mixture of water and ethylene glycol or water and polyethylene glycol (PEG200).
# Compositions prepared by the method of Example 10 were used as a single dose to test sheep infected with sheep liver fluke (Fasciola hepatica). The number of liver fluke eggs in the faeces was measured at the time of treatment and at selected intervals up to 30 days after treatment. The sheep were killed and the number of adult fluke in the liver counted. The amount and structure of the active ingredient in each composition and the results of treatment of a sheep with that composition are given in the Table 3 below. The compositions were administered by sub-cutaneous injection (s/c).
# live Fasciola hepatica = assay: Minimum effective concentration against live Fasciola hepatica in Hedon-Fleig medium (Table 4); conditions: in vitro, assessed 24 hours after treatment, read-out: MINIMUM EFFECTIVE CONCENTRATION (minimum concentration required to kill Fasciola hepatica)
# Procedure: The minimum effective concentration of compounds of formula I against live Fasciola hepatica was tested by the direct application of the test compound, in solution, to live Fasciola hepatica in Hedon-Fleig medium. The results are given in Table 4 where the minimum effective concentration (minimum concentration required to kill Fasciola hepatica) was assessed 24 hours after treatment with the test compound.
smiles,measurement,setting,value
COC(=O)Oc1c(C(=C(Cl)Cl)c2cc(Cl)cc([N+](=O)[O-])c2OC(=O)OC)cc(Cl)cc1[N+](=O)[O-] [Compound 18],"FAECAL EGG COUNT, day 7",[1]; single dose 12.0 mg/kg,60 Eggs/g faeces
same,"FAECAL EGG COUNT, day 14",[1]; single dose 12.0 mg/kg,0 Eggs/g faeces
same,POST MORTEM RESULT No. of adult fluke,[1]; single dose 12.0 mg/kg,1
CC(C)(C)SC(c1cc(Cl)cc([N+](=O)[O-])c1O)c1cc(Cl)cc([N+](=O)[O-])c1O [Compound 46],minimal effective concentration,live Fasciola hepatica,0.5 µg/mL
O=[N+]([O-])c1cc(Cl)cc(C(Oc2ccc(F)cc2)c2cc(Cl)cc([N+](=O)[O-])c2O)c1O [Compound 35],minimal effective concentration,live Fasciola hepatica,5 µg/mL
CC(c1cc(Br)cc([N+](=O)[O-])c1O)c1cc(I)cc([N+](=O)[O-])c1O (stereo not shown) [Compound 10],"FAECAL EGG COUNT, day 7",[1]; single dose 12.5 mg/kg,10 Eggs/g faeces
same,"FAECAL EGG COUNT, day 14",[1]; single dose 12.5 mg/kg,90 Eggs/g faeces
COc1cc(Cl)ccc1COC(c1cc(Cl)cc([N+](=O)[O-])c1O)c1cc(Cl)cc([N+](=O)[O-])c1O [Compound 43],minimal effective concentration,live Fasciola hepatica,5 µg/mL
"CC(C)(c1cc(F)cc([N+](=O)[O-])c1O)c1cc(Cl)cc([N+](=O)[O-])c1O [Compound 20, 2-(5-chloro-2-hydroxy-3-nitrophenyl)-2-(5-fluoro-2-hydroxy-3-nitrophenyl)propane]","FAECAL EGG COUNT, day 7",[1]; single dose 12.5 mg/kg,400 Eggs/g faeces
same,"FAECAL EGG COUNT, day 14",[1]; single dose 12.5 mg/kg,140 Eggs/g faeces
CCOC(c1cc(Cl)cc([N+](=O)[O-])c1O)c1cc(Cl)cc([N+](=O)[O-])c1O [Compound 26],"FAECAL EGG COUNT, day 7",[1]; single dose 6.0 mg/kg,130 Eggs/g faeces
same,"FAECAL EGG COUNT, day 14",[1]; single dose 6.0 mg/kg,10 Eggs/g faeces
same,POST MORTEM RESULT No. of adult fluke,[1]; single dose 6.0 mg/kg,0
O=[N+]([O-])c1cc(F)cc(C(=C(Cl)Cl)c2cc(F)cc([N+](=O)[O-])c2O)c1O [Compound 16],"FAECAL EGG COUNT, day 7",[1]; single dose 12.5 mg/kg,10 Eggs/g faeces
same,"FAECAL EGG COUNT, day 14",[1]; single dose 12.5 mg/kg,10 Eggs/g faeces
same,POST MORTEM RESULT No. of adult fluke,[1]; single dose 12.5 mg/kg,0
N#Cc1ccc(OC(c2cc(Cl)cc([N+](=O)[O-])c2O)c2cc(Cl)cc([N+](=O)[O-])c2O)cc1 [Compound 33],minimal effective concentration,live Fasciola hepatica,5 µg/mL
O=[N+]([O-])c1cc(Cl)cc(Cc2cc(Br)cc([N+](=O)[O-])c2O)c1O [Compound 3],"FAECAL EGG COUNT, day 7",[1]; single dose 12.5 mg/kg,0 Eggs/g faeces
same,"FAECAL EGG COUNT, day 14",[1]; single dose 12.5 mg/kg,0 Eggs/g faeces
same,POST MORTEM RESULT No. of adult fluke,[1]; single dose 12.5 mg/kg,1
CC(=O)Oc1c(C(=C(Cl)Cl)c2cc(Cl)cc([N+](=O)[O-])c2OC(C)=O)cc(Cl)cc1[N+](=O)[O-] [Compound 17],"FAECAL EGG COUNT, day 7",[1]; single dose 12.0 mg/kg,110 Eggs/g faeces
same,"FAECAL EGG COUNT, day 14",[1]; single dose 12.0 mg/kg,0 Eggs/g faeces
same,POST MORTEM RESULT No. of adult fluke,[1]; single dose 12.0 mg/kg,0
O=[N+]([O-])c1cc(Cl)cc(C(Sc2ccccc2)c2cc(Cl)cc([N+](=O)[O-])c2O)c1O [Compound 50],"FAECAL EGG COUNT, day 7",[1]; single dose 12.0 mg/kg,100 Eggs/g faeces
same,"FAECAL EGG COUNT, day 14",[1]; single dose 12.0 mg/kg,0 Eggs/g faeces
same,POST MORTEM RESULT No. of adult fluke,[1]; single dose 12.0 mg/kg,0
CCCSC(c1cc(Cl)cc([N+](=O)[O-])c1O)c1cc(Cl)cc([N+](=O)[O-])c1O [Compound 45],"FAECAL EGG COUNT, day 7",[1]; single dose 12.0 mg/kg,10 Eggs/g faeces
same,"FAECAL EGG COUNT, day 14",[1]; single dose 12.0 mg/kg,0 Eggs/g faeces
same,POST MORTEM RESULT No. of adult fluke,[1]; single dose 12.0 mg/kg,1
"CC(c1cc(Cl)cc([N+](=O)[O-])c1O)c1cc(Br)cc([N+](=O)[O-])c1O (stereo not shown) [Compound 8, 1-(5-Bromo-2-hydroxy-3-nitrophenyl)-1-(5-chloro-2-hydroxy-3-nitrophenyl)ethane]","FAECAL EGG COUNT, day 7",[1]; single dose 4.0 mg/kg,110 Eggs/g faeces
same,"FAECAL EGG COUNT, day 14",[1]; single dose 4.0 mg/kg,80 Eggs/g faeces
same,"FAECAL EGG COUNT, day 7",[1]; single dose 6.0 mg/kg,20 Eggs/g faeces
same,"FAECAL EGG COUNT, day 14",[1]; single dose 6.0 mg/kg,10 Eggs/g faeces
same,POST MORTEM RESULT No. of adult fluke,[1]; single dose 6.0 mg/kg,0
same,"FAECAL EGG COUNT, day 7",[1]; single dose 8.0 mg/kg,0 Eggs/g faeces
same,"FAECAL EGG COUNT, day 14",[1]; single dose 8.0 mg/kg,0 Eggs/g faeces
same,POST MORTEM RESULT No. of adult fluke,[1]; single dose 8.0 mg/kg,0
same,"FAECAL EGG COUNT, day 7",[1]; single dose 12.5 mg/kg,0 Eggs/g faeces
same,"FAECAL EGG COUNT, day 14",[1]; single dose 12.5 mg/kg,0 Eggs/g faeces
same,POST MORTEM RESULT No. of adult fluke,[1]; single dose 12.5 mg/kg,0
CC(c1cc(Br)cc([N+](=O)[O-])c1O)c1cc(Br)cc([N+](=O)[O-])c1O [Compound 9],"FAECAL EGG COUNT, day 7",[1]; single dose 12.5 mg/kg,0 Eggs/g faeces
same,"FAECAL EGG COUNT, day 14",[1]; single dose 12.5 mg/kg,0 Eggs/g faeces
same,POST MORTEM RESULT No. of adult fluke,[1]; single dose 12.5 mg/kg,0
O=[N+]([O-])c1cc(Cl)cc(Cc2cc(Cl)cc([N+](=O)[O-])c2O)c1O [Compound 1],"FAECAL EGG COUNT, day 7",[1]; single dose 12.5 mg/kg,0 Eggs/g faeces
same,"FAECAL EGG COUNT, day 14",[1]; single dose 12.5 mg/kg,50 Eggs/g faeces
same,"FAECAL EGG COUNT, day 30","[1]; single dose 12.5 mg/kg, day 30",0 Eggs/g faeces
same,POST MORTEM RESULT No. of adult fluke,[1]; single dose 12.5 mg/kg,0
O=[N+]([O-])c1cc(Cl)cc(C(OCc2ccc(F)cc2)c2cc(Cl)cc([N+](=O)[O-])c2O)c1O [Compound 40],"FAECAL EGG COUNT, day 7",[1]; single dose 2.0 mg/kg,0 Eggs/g faeces
same,"FAECAL EGG COUNT, day 14",[1]; single dose 2.0 mg/kg,130 Eggs/g faeces
same,"FAECAL EGG COUNT, day 7",[1]; single dose 6.0 mg/kg,0 Eggs/g faeces
same,"FAECAL EGG COUNT, day 14",[1]; single dose 6.0 mg/kg,0 Eggs/g faeces
same,POST MORTEM RESULT No. of adult fluke,[1]; single dose 6.0 mg/kg,0
O=[N+]([O-])c1cc(Cl)cc(C(OCc2cccc(F)c2)c2cc(Cl)cc([N+](=O)[O-])c2O)c1O [Compound 37],"FAECAL EGG COUNT, day 7",[1]; single dose 6.0 mg/kg,0 Eggs/g faeces
same,"FAECAL EGG COUNT, day 14",[1]; single dose 6.0 mg/kg,0 Eggs/g faeces
same,POST MORTEM RESULT No. of adult fluke,[1]; single dose 6.0 mg/kg,2
O=[N+]([O-])c1cc(Cl)cc(C(c2cc(Cl)cc([N+](=O)[O-])c2O)C(F)(F)C(F)(F)C(F)(F)F)c1O [Compound 55],"FAECAL EGG COUNT, day 7",[1]; single dose 2.0 mg/kg,20 Eggs/g faeces
same,"FAECAL EGG COUNT, day 14",[1]; single dose 2.0 mg/kg,0 Eggs/g faeces
same,POST MORTEM RESULT No. of adult fluke,[1]; single dose 2.0 mg/kg,1
same,"FAECAL EGG COUNT, day 7",[1]; single dose 6.0 mg/kg,50 Eggs/g faeces
same,"FAECAL EGG COUNT, day 14",[1]; single dose 6.0 mg/kg,20 Eggs/g faeces
same,POST MORTEM RESULT No. of adult fluke,[1]; single dose 6.0 mg/kg,0
CCC(C)SC(c1cc(Cl)cc([N+](=O)[O-])c1O)c1cc(Cl)cc([N+](=O)[O-])c1O (stereo not shown) [Compound 47],"FAECAL EGG COUNT, day 7",[1]; single dose 12.0 mg/kg,10 Eggs/g faeces
same,"FAECAL EGG COUNT, day 14",[1]; single dose 12.0 mg/kg,30 Eggs/g faeces
"CC(C)COC(c1cc(Cl)cc([N+](=O)[O-])c1O)c1cc(Cl)cc([N+](=O)[O-])c1O [Compound 24, bis(5-chloro-2-hydroxy-3-nitrophenyl)methyl isobutyl ether]","FAECAL EGG COUNT, day 7",[1]; single dose 6.0 mg/kg,20 Eggs/g faeces
same,"FAECAL EGG COUNT, day 14",[1]; single dose 6.0 mg/kg,10 Eggs/g faeces
same,POST MORTEM RESULT No. of adult fluke,[1]; single dose 6.0 mg/kg,0
O=[N+]([O-])c1cc(Cl)cc(C(c2cc(Cl)cc([N+](=O)[O-])c2O)C(Cl)(Cl)Cl)c1O [Compound 11],"FAECAL EGG COUNT, day 7",[1]; single dose 5.0 mg/kg,50 Eggs/g faeces
same,"FAECAL EGG COUNT, day 14",[1]; single dose 5.0 mg/kg,0 Eggs/g faeces
same,POST MORTEM RESULT No. of adult fluke,[1]; single dose 5.0 mg/kg,0
CC(c1cc(Cl)cc([N+](=O)[O-])c1O)c1cc(Cl)cc([N+](=O)[O-])c1O [Compound 7],"FAECAL EGG COUNT, day 7",[1]; single dose 5.0 mg/kg,0 Eggs/g faeces
same,"FAECAL EGG COUNT, day 14",[1]; single dose 5.0 mg/kg,50 Eggs/g faeces
same,"FAECAL EGG COUNT, day 7",[1]; single dose 8.0 mg/kg,0 Eggs/g faeces
same,"FAECAL EGG COUNT, day 14",[1]; single dose 8.0 mg/kg,0 Eggs/g faeces
same,POST MORTEM RESULT No. of adult fluke,[1]; single dose 8.0 mg/kg,0
same,"FAECAL EGG COUNT, day 7",[1]; single dose 12.5 mg/kg,20 Eggs/g faeces
same,"FAECAL EGG COUNT, day 14",[1]; single dose 12.5 mg/kg,0 Eggs/g faeces
same,POST MORTEM RESULT No. of adult fluke,[1]; single dose 12.5 mg/kg,0
same,"FAECAL EGG COUNT, day 7",[1]; single dose 20.0 mg/kg,0 Eggs/g faeces
same,"FAECAL EGG COUNT, day 13","[1]; single dose 20.0 mg/kg, day 13",0 Eggs/g faeces
same,POST MORTEM RESULT No. of adult fluke,[1]; single dose 20.0 mg/kg,0
CC(C)SC(c1cc(Cl)cc([N+](=O)[O-])c1O)c1cc(Cl)cc([N+](=O)[O-])c1O [Compound 30],"FAECAL EGG COUNT, day 7",[1]; single dose 12.0 mg/kg,10 Eggs/g faeces
same,"FAECAL EGG COUNT, day 14",[1]; single dose 12.0 mg/kg,0 Eggs/g faeces
same,POST MORTEM RESULT No. of adult fluke,[1]; single dose 12.0 mg/kg,1
O=[N+]([O-])c1cc(Cl)cc(C(Sc2ccc(Cl)cc2)c2cc(Cl)cc([N+](=O)[O-])c2O)c1O [Compound 51],"FAECAL EGG COUNT, day 7",[1]; single dose 12.0 mg/kg,10 Eggs/g faeces
same,"FAECAL EGG COUNT, day 14",[1]; single dose 12.0 mg/kg,0 Eggs/g faeces
same,POST MORTEM RESULT No. of adult fluke,[1]; single dose 12.0 mg/kg,0
"CC(C)(c1cc(F)cc([N+](=O)[O-])c1O)c1cc(F)cc([N+](=O)[O-])c1O [Compound 19, 2,2'-Isopropylidene bis(4-fluoro-6-nitrophenol)]","FAECAL EGG COUNT, day 7",[1]; single dose 12.5 mg/kg,210 Eggs/g faeces
same,"FAECAL EGG COUNT, day 14",[1]; single dose 12.5 mg/kg,180 Eggs/g faeces
